The source of these data is ChEMBL document CHEMBL5620425, “Design, synthesis and evaluation of novel 1-phenyl-pyrrolo[1,2-b]isoquinolin-3-one derivatives as antagonists for the glycine binding site of the NMDA receptor” (Eur J Med Chem, 2023).

Assay [1] concerns PC-12. In words: Neuroprotective activity against NMDA-induced cell injury in rat PC12 cells assessed as cell viability at 20 uM incubated for 24 hrs MTT assay (reference value: 77.1+/- 1.3%). The assay is classed as functional. The settings on record: for Activity: 24 h, 20 µM; for viability at 20 µM: Rattus norvegicus.
The test system of assay [2] is PC-12. As to the kind of experiment: Cytotoxicity against rat PC12 cells assessed as reduction in cell viability at 20 uM incubated for 24 hrs by MTT assay. It is filed as functional.
Assay [3] deals with PC-12. As to the kind of experiment: Cytotoxicity against rat PC12 cells assessed as reduction in cell viability at 5 uM incubated for 24 hrs by MTT assay. The assay is classed as functional, cell-based.
The subject of assay [4] is PC-12. As to the kind of experiment: Neuroprotective activity against NMDA-induced cell injury in rat PC12 cells assessed as cell viability at 2.5 to 20 uM incubated for 24 hrs MTT assay. The assay is classed as functional, cell-based. The settings on record: dose 2.5-20 µM.
In assay [5] the test system is PC-12. In words: Neuroprotective activity against NMDA-induced cell injury in rat PC12 cells assessed as cell viability incubated for 24 hrs MTT assay. The settings on record: dose 2.5-20 µM. It is filed as functional, cell-based.
Assay [6] concerns the target T1, Glutamate receptor ionotropic, NMDA 1 (Homo sapiens, UniProt Q05586). As to the kind of experiment: Binding affinity to C-terminal GFP-tagged Grin1 NMDA receptor (unknown origin) expressed in HEK293F cells assessed as dissociation constant by MST assay. The assay is classed as cell-based.
The test system of assay [7] is PC-12. As to the kind of experiment: Induction of apoptosis in NMDA-induced rat PC12 cells assessed as late apoptotic cells at 10 uM pretreated with compound for 24 hrs followed by NMDA addition and measured after 6 hrs by Annexin V-FITC/PI staining based flow cytometer analysis (reference value: 22.09 %). It is filed as functional. The settings on record: time 30 hrs.

The test system of assay [8] is PC-12. As to the kind of experiment: Induction of apoptosis in NMDA-induced rat PC12 cells assessed as necrotic cells at 10 uM pretreated with compound for 24 hrs followed by NMDA addition and measured after 6 hrs by Annexin V-FITC/PI staining based flow cytometer analysis (reference value: 8%). The assay is classed as functional. The following applies: time 30 hrs.

Assay [9] has as its system PC-12. As to the kind of experiment: Effect on cell morphology in NMDA-induced rat PC12 cells assessed as cell shrank at 10 uM pretreated with NMDA for 6 hrs. The assay is classed as functional, cell-based.
Assay [10] addresses Glutamate NMDA receptor (Rattus norvegicus) (UniProt P35439+Q00959+Q00960+Q00961+Q62645+Q8VHN2+Q9R1M7). As to the kind of experiment: Antagonist activity at NMDA receptor in rat PC12 cells assessed as reduction in NMDA-induced calcium ion influx at 10 uM pretreated with compound for 24 hrs followed by NMDA addition and measured after 6 hrs calcium colorimetric assay. It is filed as cell-based. The settings on record: filed as antagonist, time 30.0 hrs.

Assay [11] has as its system PC-12. As to the kind of experiment: Induction of apoptosis in NMDA-induced rat PC12 cells assessed as viable cells at 10 uM pretreated with compound for 24 hrs followed by NMDA addition and measured after 6 hrs by Annexin V-FITC/PI staining based flow cytometer analysis (reference value: 46.58%). It is filed as functional. The following applies: time 30 hrs, read-out: Activity.

In assay [12] the test system is PC-12. In words: Induction of apoptosis in NMDA-induced rat PC12 cells assessed as early apoptotic cells at 10 uM pretreated with compound for 24 hrs followed by NMDA addition and measured after 6 hrs by Annexin V-FITC/PI staining based flow cytometer analysis (reference value: 23.33%). The assay is classed as functional. The settings on record: time 30 hrs.
The target of assay [13] is T1, Glutamate receptor ionotropic, NMDA 1. As to the kind of experiment: Binding affinity to C-terminal GFP-tagged NMDA Grin1.M mutant (unknown origin) expressed in HEK293F cells assessed as dissociation constant by MST assay. It is filed as cell-based.
The subject of assay [14] is PC-12. As to the kind of experiment: Neuroprotective activity against NMDA-induced cell injury in rat PC12 cells assessed as cell viability 10 uM incubated for 24 hrs MTT assay. It is filed as functional.
Assay [15] has as its system PC-12. In words: Neuroprotective activity against NMDA-induced cell injury in rat PC12 cells assessed as cell viability 5 uM incubated for 24 hrs MTT assay. It is filed as functional.
Where [16] appears, read: PC-12, 24 h, read-out: Activity.

Active and inactive are the calls of the source. The calls are words filed in the database; no cut-off is given here.

For the compound `O=C1CC(c2ccccc2)C2Cc3ccccc3CN12` (racemic; 14a), in the assay with PC-12 [1], the Activity worked out at 85%.

With `O=C1CC(c2ccccc2)C2Cc3ccc(F)cc3CN12` (racemic), the viability at 20 µM with PC-12 [1] (setting [16]) came to 82.2%. Further, the Activity in the assay on PC-12 [2] was more than 87.9%.

As for `O=C1CC(c2ccccc2)C2Cc3ccc(O)cc3CN12` (racemic), the viability at 20 µM with PC-12 [1] (setting [16]) was 82.4%. The Activity in the assay with PC-12 [2] is more than 87.9%.

As to `O=C1CC(c2ccccc2Oc2ccccc2)C2Cc3ccccc3CN12` (racemic; 14l) [listing 1 of 2 here], the outcome in the assay with PC-12 [3] was Active.

For `O=C1CC(c2cccc(Oc3ccccc3)c2)C2Cc3ccccc3CN12` (racemic; 13j) [listing 1 of 2 here], the viability at 20 µM in the assay on PC-12 [1] (setting [16]) was 77.6%. Further, the Activity in the assay on PC-12 [2] came to 3.4%.

Regarding `O=C1CC(c2ccccc2Oc2ccccc2)C2Cc3ccccc3CN12` (racemic; 13k), the viability at 20 µM in the assay on PC-12 [1] (setting [16]) worked out at 77.5%. Besides, the Activity in the assay with PC-12 [2] is recorded as 3.4%.

For the compound `Cc1ccc(C2CC(=O)N3Cc4ccccc4CC23)cc1` (racemic; 13i) [listing 1 of 2 here], the viability at 20 µM in the assay on PC-12 [1] (setting [16]) was 77%.

With `O=C1CC(c2ccc(F)cc2)C2Cc3ccccc3CN12` (racemic; 14e), in the assay on PC-12 [1], the Activity is recorded as 88.1%.

As to `O=C1CC(c2cccc(O)c2)C2Cc3ccccc3CN12` (racemic), the viability at 20 µM with PC-12 [1] (setting [16]) is 78.4%. In addition, the Activity in the assay on PC-12 [2] was more than 87.9%.

In the case of `O=C1C[C@H](c2cccc(OCc3ccccc3)c2)[C@H]2Cc3ccccc3CN12`, the result in the assay with PC-12 [4] was Active. The Activity result with PC-12 [5] is “Dose-Dependent Effect”. In addition, the Kd in [6] was found to be 162 nM.

For the compound `O=C1CC(c2ccccc2)C2Cc3ccc(OCc4ccccc4)cc3CN12` (racemic), in the assay on PC-12 [1] (setting [16]), the viability at 20 µM was 68.5%. In the assay on PC-12 [2], the Activity was more than 87.9%.

Regarding `C[C@]12N[C@H](Cc3ccccc31)c1ccccc12` [DIZOCILPINE], the Activity with PC-12 [7] came out at 12.12%; in the assay with PC-12 [8], 6.81%; in the assay on PC-12 [12], 10.22%. Also, the viability at 20 µM in the assay on PC-12 [1] (PC-12, read-out: Activity) worked out at 95.1%. The outcome (in the assay on PC-12 [9]; in assay [10]) was Active. For the same compound, the viability at 10 µM with PC-12 [11] was determined as 70.9%.

In the case of `O=C1CC(c2cccc3ccccc23)C2Cc3ccccc3CN12` (racemic; 14m), the Activity in the assay on PC-12 [1] was determined as 74%.

Regarding `O=C1CC(c2cccc(Oc3ccccc3)c2)C2Cc3ccccc3CN12` (racemic; 13j) [listing 2 of 2 here], the result with PC-12 [3] was Active.

As to `O=C1CC(c2ccccc2)C2Cc3ccccc3CN12` (racemic; 13a), the viability at 20 µM with PC-12 [1] (setting [16]) is 85.3%. The Activity in the assay on PC-12 [2] is on record as more than 87.9%.

On to `O=C1CC(c2ccccc2Oc2ccccc2)C2Cc3ccccc3CN12` (racemic; 14l) [listing 2 of 2 here], for which the Activity in the assay with PC-12 [1] was determined as 76.3%.

Regarding `COc1ccc(C2CC(=O)N3Cc4cc(O)ccc4CC23)cc1` (racemic; 13f), the viability at 20 µM with PC-12 [1] (setting [16]) was 81.7%. Further, in the assay with PC-12 [2], the Activity is more than 87.9%.

Turning to `O=C1CC(c2cccc(OCc3ccccc3)c2)C2Cc3ccccc3CN12` (racemic), the dissociation constant Kd stood at 4250 nM in assay [13] and 496 nM in assay [6]. The Activity was 17.88% in the assay on PC-12 [7]; “Dose-Dependent Effect” in the assay on PC-12 [5]; 6.94% with PC-12 [8]; 92.7% in the assay on PC-12 [14]; 93.1% in the assay on PC-12 [15]; 15.6% in the assay with PC-12 [12]. In addition, the Activity with PC-12 [2] was more than 87.9%. The viability at 20 µM in the assay on PC-12 [1] (setting [16]) stood at 94.4%. The outcome (in the assay on PC-12 [9]; in assay [10]) was Active. In addition, the viability at 10 µM with PC-12 [11] stood at 59.6%.

Turning to `O=C1CC(c2ccc(Cl)cc2)C2Cc3ccccc3CN12` (racemic), the viability at 20 µM in the assay with PC-12 [1] (setting [16]) came out at 77.1%.

As for `O=C1CC(c2ccc(C(F)(F)F)cc2)C2Cc3ccccc3CN12` (racemic; 13g), the viability at 20 µM in the assay with PC-12 [1] (setting [16]) is 85.6%.

On to `O=C1CC(c2cccc3ccccc23)C2Cc3ccccc3CN12` (racemic; 13l), for which the viability at 20 µM with PC-12 [1] (setting [16]) came to 74.2%.

In the case of `O=C1CC(c2ccc(F)cc2)C2Cc3ccccc3CN12` (racemic; 13d), the viability at 20 µM with PC-12 [1] (setting [16]) was found to be 90.6%. Further, the Activity with PC-12 [2] was more than 87.9%.

On to `O=C1CC(c2ccc(C(F)(F)F)cc2)C2Cc3ccccc3CN12` (racemic; 14h), for which the Activity with PC-12 [1] is recorded as 78.7%.

Turning to `O=C1CC(c2cccc(Oc3ccccc3)c2)C2Cc3ccccc3CN12` (racemic; 14k) [listing 1 of 2 here], the Activity in the assay on PC-12 [1] worked out at 72.3%.

`O=C1C[C@@H](c2cccc(OCc3ccccc3)c2)[C@@H]2Cc3ccccc3CN12`: in the assay with PC-12 [4], the result was Active. For the same compound, the Activity result in the assay on PC-12 [5] is “Dose-Dependent Effect”. The Kd in assay [6] was determined as 370 nM.

For the compound `COc1ccc(C2CC(=O)N3Cc4cc(O)ccc4CC23)cc1` (racemic; 14g), the Activity with PC-12 [1] is recorded as 75.2%.

With `O=C1CC(c2ccccc2Cl)C2Cc3ccccc3CN12` (racemic; 14f), the Activity with PC-12 [1] stood at 74.8%.

With `O=C1CC(c2ccccc2Cl)C2Cc3ccccc3CN12` (racemic; 13e), the viability at 20 µM with PC-12 [1] (setting [16]) was 77.9%. The Activity with PC-12 [2] is listed as more than 87.9%.

Regarding `O=C1CC(c2cccc(Oc3ccccc3)c2)C2Cc3ccccc3CN12` (racemic; 14k) [listing 2 of 2 here], in the assay on PC-12 [3], the outcome was Active.

Consider `Cc1ccc(C2CC(=O)N3Cc4ccccc4CC23)cc1` (racemic; 13i) [listing 2 of 2 here], for which, in the assay on PC-12 [3], the outcome was Active.

For the compound `Cc1ccc(C2CC(=O)N3Cc4ccccc4CC23)cc1` (racemic; 14j), in the assay with PC-12 [1], the Activity was determined as 82.3%.
